Source: publication PMC10508264, “Exploring the antioxidant, antimicrobial, cytotoxic and biothermodynamic properties of novel morpholine derivative bioactive Mn(II), Co(II) and Ni(II) complexes – combined experimental and theoretical measurements towards DNA/BSA/SARS-CoV-2 3CL^Pro” (RSC Medicinal Chemistry, 2023)

What was measured:
DNA = DNA cleavage by gel electrophoresis under H2O2; assay type: biochemical; details: H2O2 environment
Excerpt: In a cellular system, DNA base pairs can be broken by a variety of mechanisms, including errors in DNA replication, generation of a heteroduplex during homologous recombination, spontaneous deamination of cytosine, and base pairs broken by mutagens or ionizing radiation, which also lead to improper base pairing and mutations. Also, metal complexes have the capability of recognizing DNA mismatches and may become vital entities for investigation and possibly for clinical applications.[55] Moreover, the cleavage of one or both DNA strands is a typical and essential process for maintaining cell viability: during DNA replication and transcription, topoisomerase enzymes correct topological issues, and various nucleases take part in repair mechanisms and DNA degradation, which is one of the distinguishing features of apoptotic programmed cell death. Similarly, several antitumor drugs have the potential to cleave DNA by inducing apoptosis, which eventually leads to cancer cell death. Conversely, molecules that can interact with DNA's major or minor grooves are known as groove-binding molecules, which disrupt and impair the function of the DNA double helix via various non-covalent interactions. The DNA nuclease properties of all samples were assessed in an H2O2 environment by the gel electrophoresis method. DNA cleavage was monitored during the conversion of supercoiled plasmids into linear and nicked DNA fragments. Also, the observed DNA nuclease efficacy for all complexes (1–3) was compared with the free ligand (HL) and CT-DNA alone. No substantial nuclease activity can be seen in the control (Fig. 1 and S13 ^†) (lane 1; DNA + H2O2) even after a lot of time has passed, and free ligand (HL) (lane 2) was monitored as immobile in an H2O2 environment. […] Consequently, it is commonly acknowledged that ROS plays a dual physiological role in controlling a variety of illnesses as well as cellular homeostasis (self-regulating processes like thermoregulation, blood glucose regulation, calcium/potassium homeostasis, and osmoregulation).[56] […] Additionally, it is widely known that the NADPH oxidase enzyme produces reactive oxygen species as part of its antibacterial effect on phagocytic cells. Nevertheless, these types of enzyme seem to be present in a variety of other cells and may have significant signalling pathway functions. When non-carcinogenic toxicity events occur, ROS has the ability to alter cell function as well as to affect the genesis of cancer at several levels. OH˙ can attack DNA, proteins, and lipids due to its high reactivity among ROS. Also, the hydroxyl radical is a key participant in free-radical-mediated hazardous reactions because of its great reactivity. […]

CT-DNA = experiment: DNA thermal denaturation / biothermodynamic properties; assay type: binding; details: for Tm of DNA–substance adduct: 1:1 ratio (50 μM), free CT-DNA 68 °C; for Binding constant Kr @ 298 K: 25 °C (298 K); for ΔTm: adduct vs CT-DNA alone
BSA = BSA (Bos taurus, UniProt P02769); experiment: BSA fluorescence quenching titration; assay type: binding, bovine; details: for Gibb's free energy change (SV method II), BSA: T = 298 K; for Kq (SV method I), BSA: τ0 = 10^−8 s; for P, ratio of fluorescence quantum efficiency, BSA: F/F0 vs 1/[BSA]
Experimental: Titrations were performed for all tested compounds (1–200 μM) with pre-incubated EB-bound DNA and the intensity variations between 510 nm and 610 nm were carefully monitored in the presence and absence of DNA (200 μM) during the initial emission and excitation by EB.[31]
Fluorescence emission spectral titration is an efficient approach to evaluating the binding properties of DNA/BSA biomolecules. In general, the fluorescence of EB is quite weak in aqueous solution, but when it is bound to DNA, the fluorescence intensity rises. However, it is a well-known imperative intercalator and is more supportive in distinguishing the binding strength of non-fluorescence test substances. Also, the fluorescence emission spectra of the EB–DNA adduct were examined at 610 nm in the absence and presence of rising quantities of each test compound. When the complex concentration (0–240 μM) rises, the fluorescence intensity of the EB-bound DNA complex diminishes owing to the displacement of EB from CT-DNA. A notable reduction in the fluorescence emission intensity at 610 nm is observed (Fig. S26 ^† and Table 4). The photoelectron shift from DNA's guanine base to the excited states may be the cause of the frequency quenching in the emission of the test substance by DNA. […] Therefore, the competitive binding experiment can make use of EB as a fluorescent probe. […] This is further evidence that complexes (1–3) strongly bind intercalatively with DNA. The observed results agree well with the data from electronic absorption spectral measurements. Additionally, the experiment was extended to examine the binding properties between the test substance and BSA. BSA mostly contains three amino acid residues (tyrosine, tryptophan, and phenylalanine), which give it its inherent fluorescence. […] These two residues also have minimal quenching effects. Tryptophan in BSA fluoresces mostly because of a residue that is trapped inside a hydrophobic cavity. Therefore, it is crucial to model potential binding interactions with the metal complexes. […] The fluorescence intensity also reduces while the test substances (1–3) are steadily blended with the BSA solution, proving that complexes (1–3) interact with BSA via altering the protein's secondary structure, which also leads to an alteration in the tryptophan environment of BSA (Fig. S27 ^†). Furthermore, BSA structural similarities share 76% sequence identity with human serum albumin (HSA), the most prevalent protein in blood plasma that transports ions and proteins to cells and tissues. HSA is able to readily crystallize under the trivalent cations, but BSA has no ready crystallizing property. However, they consist of parallel physicochemical properties to each other.[74,75] Additionally, the Stern–Volmer eqn (12) and (13) were employed to analyze the data (Fig. S28 ^† and Table 4). Additionally, the kq values for DNA and BSA binding were acquired in the range of 1.1636–2.8863 × 10^12 and 2.6390–7.0774 × 10^12 mol^−1 s^−1, respectively. They are also much greater than the collision quenching constant value (2.0 × 10^10 mol^−1 s^−1). Therefore, it is assumed that the static quenching process was brought on by adduct construction between the test compounds and BSA rather than a dynamic collision. However, fluorescence spectroscopy is generally plagued by the inner filter effect (IFE), disturbing spectral analysis. The energizing ray is attenuated due to the highly concentrated solution sample. As a result, strong fluorescence is only seen on surfaces facing the excitation beam.

Escherichia coli = experiment: Agar disc diffusion, strain A; assay type: cell-based; parameters: Inhibition%: concentration or dose not given beside the values; details: for Diameter of clear zone inhibition: control (DMSO) 6 mm

Row | SMILES | DNA cleavage (DNA) | Tm of DNA–substance adduct (CT-DNA) [°C] | Binding constant (CT-DNA; 10 °C (283 K)) [M⁻¹] | Binding constant Kr @ 298 K (CT-DNA) [M⁻¹] | Binding constant (CT-DNA; 40 °C (313 K)) [M⁻¹] | ΔTm (CT-DNA) [°C] | KSV (SV method I), BSA (BSA) [M⁻¹] | Kass (SV method II), BSA (BSA) [M⁻¹] | n, number of binding sites (SV method II), BSA (BSA) | Gibb's free energy change (SV method II), BSA (BSA) [kJ/M] | Kq (SV method I), BSA (BSA) [M⁻¹ s⁻¹] | P, ratio of fluorescence quantum efficiency, BSA (BSA) | Inhibition% (Escherichia coli) [%] | Diameter of clear zone inhibition (Escherichia coli) [mm]
1 | [Mn+2].[O-]c1ccccc1N=Cc1ccc(N2CCOCC2)cc1.[O-]c1ccccc1N=Cc1ccc(N2CCOCC2)cc1.c1ccc(-c2ccccn2)nc1 [(1)] | no considerable cleavage efficiency | 76 | 72350 | 18195 | 7732.1 | 8 | 46510 | 20050 | 0.954 | -24.5 | 4.651e+12 | 0.287 | 40 | 10
2 | [Co+2].[O-]c1ccccc1N=Cc1ccc(N2CCOCC2)cc1.[O-]c1ccccc1N=Cc1ccc(N2CCOCC2)cc1.c1ccc(-c2ccccn2)nc1 [(2)] | complete DNA cleavage | 78 | 98820 | 18806 | 8043.3 | 10 | 70740 | 54550 | 1.018 | -27.0 | 7.074e+12 | 0.385 | 40 | 10
3 | [Ni+2].[O-]c1ccccc1N=Cc1ccc(N2CCOCC2)cc1.[O-]c1ccccc1N=Cc1ccc(N2CCOCC2)cc1.c1ccc(-c2ccccn2)nc1 [(3)] | partial DNA cleavage | 77 | 91140 | 18207 | 7879.7 | 9 | 48060 | 52920 | 1.051 | -26.9 | 4.8055e+12 | 0.348 | 50 | 12
4 | Oc1ccccc1N=Cc1ccc(N2CCOCC2)cc1 [(HL), 2-(4-morpholinobenzylideneamino)phenol] | immobile | 74 | 52575 | 15169 | 6067.4 | 6 | 26390 | 10620 | 0.926 | -23.0 | 2.639e+12 | 0.464 | 33 | 09
